# According to patent publication US20250313563A1, “GLYCOGEN SYNTHASE KINASE 3 INHIBITORS AND USES THEREOF” (The Broad Institute, Inc., priority 2022, published 2025):
# Read-outs that look alike come from different tables or passages of the source.
# What was measured:
# [1] = molecular target: GSK3b (GST-full length GSK3b) (Homo sapiens (Human), UniProt P49841); assay: GSK3b TR-FRET kinase assay; format: biochemical; details: IC50
# Outline: (§1)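 IC50 came from the normalized 665/615 nm TR-FRET ratio plotted against log compound concentration. The Tb-labelled pSer641 antibody and streptavidin-d2 detected phosphorylation of biotinylated S645-primed glycogen synthase peptide (200 nM) by 1 nM full-length GST-kinase. ATP was 4 μM for α, 2 μM for β, or 1 mM.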
# [2] = molecular target: GSK3α (GST-full length GSK3α) (Homo sapiens (Human), UniProt P49840); assay: GSK3α TR-FRET kinase assay; format: biochemical; details: IC50
# Chain of GSK3α (GST-full length GSK3α) (P49840 whole entry): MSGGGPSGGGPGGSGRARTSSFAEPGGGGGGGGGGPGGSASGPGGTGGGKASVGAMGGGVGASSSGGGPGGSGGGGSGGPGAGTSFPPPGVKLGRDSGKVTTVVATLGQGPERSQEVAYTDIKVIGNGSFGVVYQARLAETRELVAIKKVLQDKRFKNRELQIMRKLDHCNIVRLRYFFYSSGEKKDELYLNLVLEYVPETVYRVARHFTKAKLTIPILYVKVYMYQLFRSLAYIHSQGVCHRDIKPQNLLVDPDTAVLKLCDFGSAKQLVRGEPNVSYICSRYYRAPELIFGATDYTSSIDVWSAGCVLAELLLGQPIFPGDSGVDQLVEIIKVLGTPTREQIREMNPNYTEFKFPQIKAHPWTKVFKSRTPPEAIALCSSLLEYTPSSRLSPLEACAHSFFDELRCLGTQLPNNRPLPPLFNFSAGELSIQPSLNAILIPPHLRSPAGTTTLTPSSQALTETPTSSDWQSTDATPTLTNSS
# Outline: as §1
# [3] = 1 nM GSK3b, 2 μM ATP, 30 minute preincubation, geometric mean, read-out: GSK3-B TR-FRET BIOCHEMICAL (TR-FRET), GMean
# [4] = 1 nM GSK3α, 4 μM ATP, 30 minute preincubation, geometric mean, read-out: GSK3-A TR-FRET BIOCHEMICAL (TR-FRET), GMean
# [5] = read-out: GSK3-B (TR-FRET 1 mM ATP), GMean, 1 mM ATP, geometric mean
# [6] = read-out: GSK3-A (TR-FRET 1 mM ATP), GMean, 1 mM ATP, geometric mean
# [7] = 1 nM GSK3b, 2 μM ATP, 30 minute preincubation, Table 16, read-out: GSK3-B TR-FRET BIOCHEMICAL (TR-FRET)
# [8] = 1 nM GSK3α, 4 μM ATP, 30 minute preincubation, Table 16, read-out: GSK3-A TR-FRET BIOCHEMICAL (TR-FRET)
# Chain of GSK3b (GST-full length GSK3b) (P49841 whole entry): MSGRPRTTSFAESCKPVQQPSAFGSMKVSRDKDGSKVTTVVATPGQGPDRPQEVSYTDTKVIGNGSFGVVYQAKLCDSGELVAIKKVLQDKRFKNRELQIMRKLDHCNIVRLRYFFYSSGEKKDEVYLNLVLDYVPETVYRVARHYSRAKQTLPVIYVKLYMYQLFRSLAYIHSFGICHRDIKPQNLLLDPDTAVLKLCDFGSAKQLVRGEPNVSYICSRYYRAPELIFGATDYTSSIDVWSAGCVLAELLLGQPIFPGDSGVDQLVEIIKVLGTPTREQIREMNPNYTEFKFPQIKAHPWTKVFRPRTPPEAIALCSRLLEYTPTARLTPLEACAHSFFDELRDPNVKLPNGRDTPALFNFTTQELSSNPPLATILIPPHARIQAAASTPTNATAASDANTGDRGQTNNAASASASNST
SMILES,"IC50 [1, 3] [µM]","IC50 [2, 4] [µM]",further results
CCC1(c2cccc(N3CCCC3)c2)C2=C(CC(C)(C)CC2=O)Nc2n[nH]c(C(F)(F)F)c21 (centres unmarked) [Compound 810506],≤ 0.1,≤ 0.1,–
CCC1(c2cccc(N3CCOCC3)c2)C2=C(CC(C)(C)CC2=O)Nc2n[nH]c(C(F)(F)F)c21 (centres unmarked) [Compound 810507],≤ 0.1,≤ 0.1,–
CCC1(c2cccc(SC)c2)C2=C(CC(C)(C)CC2=O)Nc2n[nH]cc21 (centres unmarked) [Compound 810508],0.1 to 1,≤ 0.1,–
CC[C@@]1(c2cccc(N3CCCC3)c2)C2=C(CC(C)(C)CC2=O)Nc2n[nH]cc21 [Compound 810509],> 5,> 5,–
CC1(C)CC(=O)C2=C(C1)Nc1n[nH]c(CC(F)(F)F)c1C21CCc2c(F)cccc21 (centres unmarked) [Compound 810590],0.1 to 1,0.1 to 1,–
CC1(C)CC(=O)C2=C(C1)Nc1[nH]nc(C3(C(F)(F)F)CC3)c1C21CCc2c(F)cccc21 (centres unmarked) [Compound 810591],0.1 to 1,0.1 to 1,–
CCC1(c2ccccc2)C2=C(CS(=O)(=O)CC2=O)Nc2n[nH]cc21 (centres unmarked) [Compound 811512],–,–,"IC50 ([1]; 1 nM GSK3b, 2 μM ATP, 30 minute preincubation, read-out: GSK3-B TR-FRET BIOCHEMICAL (TR-FRET)): > 5 µM; IC50 ([2]; 1 nM GSK3α, 4 μM ATP, 30 minute preincubation, read-out: GSK3-A TR-FRET BIOCHEMICAL (TR-FRET)): > 5 µM"
CCC1(c2ccccc2)C2=C(CC3(CCC3)CC2=O)Nc2n[nH]cc21 (centres unmarked) [Compound 811555],0.1 to 1,0.1 to 1,–
Cc1[nH]nc2c1C(C)(c1cccc(C(F)(F)F)c1)C1=C(CC(C)(C)CC1=O)N2 (centres unmarked) [Compound 811556],≤ 0.1,≤ 0.1,–
CC[C@]1(c2cccc(C3CC3)c2)C2=C(CC(C)(C)CC2=O)Nc2n[nH]cc21 [Compound 811557],≤ 0.1,≤ 0.1,"IC50 [1, 5]: 1 to 5 µM; IC50 [2, 6]: 0.1 to 1 µM"
CCC1(c2cccc(OC)c2)C2=C(CC(C)CC2=O)Nc2n[nH]cc21 (centres unmarked) [Compound 811559],0.1 to 1,≤ 0.1,–
CC[C@@]1(c2cccc(OC)c2)C2=C(CC(C)(C)CC2=O)Nc2n[nH]cc21 [Compound 811561],> 5,1 to 5,–
CC[C@@]1(c2cccc(OC(C)C)c2)C2=C(CC(C)(C)CC2=O)Nc2n[nH]cc21 [Compound 811563],> 5,1 to 5,–
CCC1(c2cccc(-c3cnn(C)c3)c2)C2=C(CC(C)(C)CC2=O)Nc2n[nH]c(C(F)(F)F)c21 (centres unmarked) [Compound 811567],0.1 to 1,0.1 to 1,–
CCC1(c2cccc(-c3cnn(C)c3)c2)C2=C(CC(C)CC2=O)Nc2n[nH]cc21 (centres unmarked) [Compound 816752],1 to 5,≤ 0.1,–
CC1(C)CC(=O)C2=C(C1)Nc1n[nH]cc1C21CCc2c(Cl)cccc21 (centres unmarked) [Compound 816795],0.1 to 1,≤ 0.1,–
CCC1(c2ccccc2)C2=C(CC(C)(C(F)(F)F)CC2=O)Nc2n[nH]cc21 (centres unmarked) [Compound 816796],1 to 5,0.1 to 1,–
CC1(C)CC(=O)C2=C(C1)Nc1n[nH]cc1[C@@]2(C)c1cc(C(F)(F)F)ccc1F [Compound 816797],> 5,1 to 5,–
CC1(C)CC(=O)C2=C(C1)Nc1n[nH]cc1[C@]2(C)c1cc(C(F)(F)F)ccc1F [Compound 816798],0.1 to 1,≤ 0.1,–
CCC1(c2cccc(N3CCCCC3)c2)C2=C(CC(C)(C)CC2=O)Nc2n[nH]c(C(F)(F)F)c21 (centres unmarked) [Compound 816799],1 to 5,0.1 to 1,–
CC[C@]1(c2cccc(N3CCCCC3)c2)C2=C(CC(C)(C)CC2=O)Nc2n[nH]c(C(F)(F)F)c21 [Compound 816800],≤ 0.1,≤ 0.1,"IC50 [1, 5]: ≤ 0.1 µM; IC50 [2, 6]: ≤ 0.1 µM"
CC1(C)CC(=O)C2=C(C1)Nc1n[nH]c(CC(F)(F)F)c1C21CCc2c(F)cccc21 (centres unmarked) [Compound 816837],0.1 to 1,1 to 5,–
CC1(C)CC(=O)C2=C(C1)Nc1n[nH]c(C3(C(F)(F)F)CC3)c1C21CCc2c(F)cccc21 (centres unmarked) [Compound 816839],1 to 5,> 5,–
CC1(C)CC(=O)C2=C(C1)Nc1n[nH]c(C3(C(F)(F)F)CC3)c1C21CCc2c(F)cccc21 (centres unmarked) [Compound 816840],0.1 to 1,1 to 5,–
CC[C@]1(c2ccccc2)C2=C(C[C@](C)(COC)CC2=O)Nc2n[nH]cc21 [Compound 816872],> 5,> 5,–
CC[C@]1(c2ccccc2)C2=C(C[C@@](C)(COC)CC2=O)Nc2n[nH]cc21 [Compound 816873],1 to 5,0.1 to 1,–
CC[C@@]1(c2ccccc2)C2=C(C[C@](C)(COC)CC2=O)Nc2n[nH]cc21 [Compound 816874],> 5,> 5,–

SMILES,"IC50 [1, 3] [µM]","IC50 [2, 4] [µM]",further results
CC[C@@]1(c2ccccc2)C2=C(C[C@@](C)(COC)CC2=O)Nc2n[nH]cc21 [Compound 816875],1 to 5,0.1 to 1,–
CC[C@]1(c2ccccc2)C2=C(C[C@@]3(CCCOC3)CC2=O)Nc2n[nH]cc21 [Compound 816876],> 5,> 5,–
CC[C@]1(c2ccccc2)C2=C(C[C@]3(CCCOC3)CC2=O)Nc2n[nH]cc21 [Compound 816877],> 5,> 5,–
CC[C@@]1(c2ccccc2)C2=C(C[C@@]3(CCCOC3)CC2=O)Nc2n[nH]cc21 [Compound 816878],1 to 5,0.1 to 1,–
CC[C@@]1(c2ccccc2)C2=C(C[C@]3(CCCOC3)CC2=O)Nc2n[nH]cc21 [Compound 816879],0.1 to 1,0.1 to 1,–
CC[C@]1(c2ccccc2)C2=C(C[C@]3(CCOC3)CC2=O)Nc2n[nH]cc21 [Compound 816880],> 5,> 5,–
CC[C@]1(c2ccccc2)C2=C(C[C@@]3(CCOC3)CC2=O)Nc2n[nH]cc21 [Compound 816881],1 to 5,0.1 to 1,–
CC[C@@]1(c2ccccc2)C2=C(C[C@]3(CCOC3)CC2=O)Nc2n[nH]cc21 [Compound 816882],> 5,> 5,–
CC[C@@]1(c2ccccc2)C2=C(C[C@@]3(CCOC3)CC2=O)Nc2n[nH]cc21 [Compound 816884],1 to 5,0.1 to 1,–
CCC1(c2cccc(N3CCOCC3)c2)C2=C(CC(C)(C)CC2=O)Nc2n[nH]c(C(F)(F)F)c21 (centres unmarked) [Compound 816886],1 to 5,1 to 5,–
CCC1(c2cccc(CN3CCCCC3)c2)C2=C(CC(C)(C)CC2=O)Nc2n[nH]cc21 (centres unmarked) [Compound 819560],> 5,1 to 5,–
CCC1(c2cccc(S(C)(=O)=O)c2)C2=C(CC(C)(C)CC2=O)Nc2n[nH]cc21 (centres unmarked) [Compound 819561],≤ 0.1,≤ 0.1,–
CC1(C)CC(=O)C2=C(C1)Nc1n[nH]cc1C2(C)CCc1ccccc1 (centres unmarked) [Compound 819562],–,–,"IC50 [1, 7]: > 5 µM; IC50 [2, 8]: 1 to 5 µM"
CCC1(CCc2ccccc2)C2=C(CC(C)(C)CC2=O)Nc2n[nH]cc21 (centres unmarked) [Compound 819563],–,–,"IC50 [1, 7]: > 5 µM; IC50 [2, 8]: 1 to 5 µM"
CCC1(c2cccc(C(F)F)c2)C2=C(CC(C)(C)CC2=O)Nc2n[nH]cc21 (centres unmarked) [Compound 819564],≤ 0.1,≤ 0.1,–
CCC1(c2cccc(Br)c2)C2=C(CC(C(F)(F)F)CC2=O)Nc2n[nH]cc21 (centres unmarked) [Compound 819565],0.1 to 1,0.1 to 1,–
CC[C@@]1(c2ccccc2)C2=C(C[C@](C)(C(F)(F)F)CC2=O)Nc2n[nH]cc21 [Compound 819568],0.1 to 1,0.1 to 1,–
CC[C@]1(c2ccccc2)C2=C(C[C@](C)(C(F)(F)F)CC2=O)Nc2n[nH]cc21 [Compound 819569],1 to 5,0.1 to 1,–
CC[C@]1(c2ccccc2)C2=C(C[C@@](C)(C(F)(F)F)CC2=O)Nc2n[nH]cc21 [Compound 819570],> 5,> 5,–
CC[C@@]1(c2ccccc2)C2=C(C[C@@](C)(C(F)(F)F)CC2=O)Nc2n[nH]cc21 [Compound 819571],> 5,> 5,–
CC[C@]1(c2ccccc2)C2=C(CC3(CCC3)CC2=O)Nc2n[nH]cc21 [Compound 819572],> 5,> 5,–
CC[C@@]1(c2ccccc2)C2=C(CC3(CCC3)CC2=O)Nc2n[nH]cc21 [Compound 819573],0.1 to 1,≤ 0.1,–
CC[C@]1(c2cccc(N3CCCC3)c2)C2=C(CC(C)(C)CC2=O)Nc2n[nH]c(C(F)(F)F)c21 [Compound 819574],≤ 0.1,≤ 0.1,"IC50 [1, 5]: ≤ 0.1 µM; IC50 [2, 6]: ≤ 0.1 µM"
CCC1(c2cccc(N3CCCC3)c2)C2=C(CC(C)(C)CC2=O)Nc2n[nH]c(C(F)(F)F)c21 (centres unmarked) [Compound 819575],≤ 0.1,0.1 to 1,"IC50 [1, 5]: ≤ 0.1 µM; IC50 [2, 6]: ≤ 0.1 µM"
CCC1(c2cccc(-c3cnn(C)c3)c2)C2=C(CC(C)(C)CC2=O)Nc2n[nH]cc21 (centres unmarked) [Compound 819576],1 to 5,0.1 to 1,–
CCC1(c2cccc(-c3cnn(C)c3)c2)C2=C(CC(C)(C)CC2=O)Nc2n[nH]cc21 (centres unmarked) [Compound 819577],0.1 to 1,≤ 0.1,"IC50 [1, 5]: > 5 µM; IC50 [2, 6]: 0.1 to 1 µM"
